One compound from ChEMBL document CHEMBL5338726, “Characterization of Chlorogenic Acid as a Two-Photon Fluorogenic Probe that Regulates Glycolysis in Tumor Cells under Hypoxia” (J Med Chem, 2023) can be followed below.

The test system of series [1] is A-375. The experiment in a line: Increase in oxygen consumption rate in human A-375 cells at upto 10 uM measured after 6 hrs under hypoxia condition. Format: functional, cell-based.
Series [2] relates to A-375. As to the kind of experiment: Reduction in extracellular acidification rates in human A-375 cells at upto 10 uM incubated for 6 hrs under hypoxia condition. The series is classed as functional, cell-based.
Series [3] relates to A-375. The experiment in a line: Antitumor activity in human A-375 cells xenografted in BALB/c-nu mouse model assessed as inhibition of tumor growth at 25 to 50 mg/kg, ip administered once daily and measured every 3 days for 18 days. The conditions noted are these: dose 25-50 mg/kg, time 18.0 day. The series is classed as functional, organism-based. Background: Xenograft models place foreign cells or tissue in a host animal.

Series [4] concerns A-375. The experiment in a line: Antiproliferative activity against human A-375 cells assessed as reduction in colony number at 1.25 to 10 uM measured after 10 days under normoxia condition by crystal violet staining based analysis. The series is classed as functional, cell-based. The conditions noted are these: dose 1.25-10 µM, time 10.0 day.
Series [5] relates to A-375. The experiment in a line: Reduction in extracellular acidification rates in human A-375 cells at upto 10 uM incubated for 6 hrs under normoxia condition. Format: functional, cell-based.
Series [6] relates to A-375. As to the kind of experiment: Increase in oxygen consumption rate in human A-375 cells at upto 10 uM measured after 6 hrs under normoxia condition. Format: functional, cell-based.
The test system of series [7] is A-375. As to the kind of experiment: Radical scavenging activity in 2-ME treated oxidative stress induced tumor bearing BALB/c-nu mouse xenografted in human A-375 cells assessed as increase in fluorescence intensity at 10 uM incubated for 30 mins by confocal microscopic analysis. The series is classed as functional, cell-based.
The subject of series [8] is A-375. As to the kind of experiment: Antitumor activity in human A-375 cells xenografted in BALB/c-nu mouse model assessed as decrease in AMPKalpha phosphorylation 50 mg/kg, ip by Western blot analysis. The series is classed as functional, organism-based.
Series [9] deals with A-375. The experiment in a line: Reduction in […] O2 level in human A-375 cells at 2.5 to 10 uM incubated for 72 hrs under normoxia condition by DHE based flow cytometry analysis. The series is classed as functional, cell-based. The conditions noted are these: dose 2.5-10 µM. A general note: In flow cytometry, cells or beads pass a laser one at a time.
For series [10], the system named is A-375. As to the kind of experiment: Antiproliferative activity against human A-375 cells assessed as reduction in cell growth at 1.25 to 10 uM incubated for 72 hrs under hypoxia condition by MTT assay. The series is classed as functional, cell-based. Conditions: dose 1.25-10 µM. A general note: Tetrazolium dyes change colour on reduction, which living cells bring about.

Series [11] relates to A-375. As to the kind of experiment: Reduction in AMPK phosphorylation level in human A-375 cells at upto 20 uM incubated for 72 hrs under normoxic condition by Western blot analysis. Format: functional, cell-based.
Series [12] relates to A-375. As to the kind of experiment: Antiproliferative activity against human A-375 cells assessed as reduction in colony number at 1.25 to 10 uM measured after 10 days under hypoxia condition by crystal violet staining based analysis. Format: functional, cell-based. The conditions noted are these: dose 1.25-10 µM, time 10.0 day.
In series [13] the test system is A-375. The experiment in a line: Reduction in ATP production in human A-375 cells at upto 10 uM incubated for 6 hrs under hypoxia condition by real-time ATP rate assay. The series is classed as functional, cell-based.
Series [14] deals with A-375. The experiment in a line: Reduction in AMPK phosphorylation level in human A-375 cells at upto 20 uM incubated for 72 hrs under hypoxic condition by Western blot analysis. The series is classed as functional, cell-based.
Series [15] has as its system A-375. As to the kind of experiment: Radical scavenging activity in 2-ME treated oxidative stress induced human A-375 cells assessed as increase in fluorescent signal at 10 uM incubated for 30 mins followed by washout and addition of ascorbic acid by confocal microscopic analysis. The series is classed as functional, cell-based.
For series [16], the system named is A-375. As to the kind of experiment: Reduction in ATP production in human A-375 cells at upto 10 uM incubated for 6 hrs under normoxia condition by real-time ATP rate assay. The series is classed as functional, cell-based.
Series [17] is described as follows: Drug localization in 2-ME treated human A-375 cells assessed as fluorescence in mitochondrial apparatus at 10 uM incubated for 30 mins by mito-tracker green dye based confocal microscopy analysis. The series is classed as ADME, cell-based. Conditions: a-375, 0.5 h.
For series [18], the system named is A-375. The experiment in a line: Radical scavenging activity in 2-ME treated oxidative stress induced tumor bearing BALB/c-nu mouse xenografted in human A-375 cells assessed as increase in fluorescence intensity at 10 uM incubated for 30 mins followed by washout and addition of ascorbic acid by confocal microscopic analysis. Format: functional, cell-based.
Series [19] relates to A-375. The experiment in a line: Radical scavenging activity in 2-ME treated oxidative stress induced human A-375 cells assessed as increase in fluorescent signal at 10 uM incubated for 30 mins by confocal microscopic analysis. The series is classed as functional, cell-based.
For series [20], the system named is A-375. As to the kind of experiment: Antiproliferative activity against human A-375 cells assessed as reduction in cell growth at 1.25 to 10 uM incubated for 72 hrs under normoxia condition by MTT assay. The series is classed as functional, cell-based. Conditions: dose 1.25-10 µM.
Series [21] deals with A-375. The experiment in a line: Radical scavenging activity in 2-ME treated oxidative stress induced human A-375 cells assessed as increase in fluorescent signal at 10 uM incubated for 30 mins followed by washout and addition of superoxide dismutase by confocal microscopic analysis. Format: functional, cell-based.
Series [22] in a line: Drug localization in 2-ME treated human A-375 cells assessed as fluorescence in lysosomes at 10 uM incubated for 30 mins by lyso-tracker red dye based confocal microscopy analysis. The series is classed as ADME, cell-based. Conditions: a-375, 0.5 h.
The subject of series [23] is A-375. As to the kind of experiment: Reduction in […] O2 level in human A-375 cells at 2.5 to 10 uM incubated for 72 hrs under hypoxia condition by DHE based flow cytometry analysis. The series is classed as functional, cell-based. Conditions: dose 2.5-10 µM.
Series [24] in a line: Toxicity in BALB/c-nu mouse xenografted with human A-375 cells assessed as effect on body weight at 25 to 50 mg/kg, ip administered once daily fo 18 days post treatment. The series is classed as organism-based. Conditions: in vivo, 432 h, dose 25-50 mg/kg, time 18 day.

Calls of active or inactive are those of the source. No cut-off for these calls is given here.

Consider `O=C(/C=C/c1ccc(O)c(O)c1)O[C@@H]1C[C@](O)(C(=O)O)C[C@@H](O)[C@H]1O` [CHLOROGENIC ACID], for which the result in series [1], in series [2], in series [3], in [7], in series [8] and in series [10] was Active. Besides, the result in [12], in series [13], in [14], in series [19] and in series [23] was Active. Further, the result in series [4], in [5], in [6], in series [9], in series [11] and in series [15] was inactive. In addition, the result in [16], in series [18], in series [20] and in series [21] was inactive. In addition, the values for the Drug uptake result in series [17] and in series [22] were “Active” and “Not Active”, respectively. The Activity result in [24] is on record as “Non-Toxic”.
